Biological target: ERα (Homo sapiens (Human), UniProt P03372)
Experiment: Estrogen receptor degradation activity: breast cancer cell ERα in cell western assay
Assay type: cell-based
Settings: MCF7 cells; for % Degradation At 0.3 μM: 4 hours, normalised to fulvestrant 0.1 μM and DMSO; for IC50: 4 hours post compound addition, concentration which degrades 50% of the estrogen receptor
Protocol: Said test involves measuring the in vitro degradation activity of the compounds of the Table 1a.
The measurements of the degradation activities were made using a breast cancer cell ERα in cell western assay as described hereunder.
MCF7 cells (ATCC) were seeded in 384 wells microplate (collagen coated) at a concentration of 10000 cells/30 μL per well in red phenol free MEM alpha medium (invitrogen) containing 5% charcoal dextran striped FBS. The following day, 9 points serial 1:5 dilution of each compound was added to the cells in 2.5 μL at final concentrations ranging from 0.3-0.0000018 μM (in table 2), or 0.1 μM for fulvestrant (using as positive control). At 4 hours post compound addition the cells were fixed by adding 25 μL of formalin (final concentration 5% formalin containing 0.1% triton) for 10 minutes at room temperature and then washed twice with PBS. Then, 50 μL of LI-COR blocking buffer containing 0.1% Triton was added to plate for 30 minutes at room temperature. LI-COR blocking buffer was removed and cells were incubated overnight at cold room with 50 μL anti-ER rabbit monoclonal antibody (Thermo scientific MA1-39540) diluted at 1:1000 in LI-COR blocking buffer containing 0.1% tween-20. Wells which were treated with blocking buffer but no antibody were used as background control. Wells were washed twice with PBS (0.1% tween-20) and incubated at 37° C. for 60 minutes in LI-COR (0.1% tween-20) containing goat anti-rabbit antibody Alexa 488 (1:1000) and Syto-64 a DNA dye (2 μM final concentration). Cells were then washed 3 times in PBS and scanned in ACUMEN explorer (TTP-Labtech). Integrated intensities in the green fluorescence and red fluorescence were measured to determine the levels of ERα and DNA respectively.
The degradation activity with respect to estrogen receptors in this test is given by the concentration which degrades 50% of the estrogen receptor (or IC50) in nM.
The % of ERα levels decrease were determined as follows: % inhibition=100*(1−(sample−fulvestrant:DMSO−fulvestrant)).

Chain of ERα (P03372 whole entry): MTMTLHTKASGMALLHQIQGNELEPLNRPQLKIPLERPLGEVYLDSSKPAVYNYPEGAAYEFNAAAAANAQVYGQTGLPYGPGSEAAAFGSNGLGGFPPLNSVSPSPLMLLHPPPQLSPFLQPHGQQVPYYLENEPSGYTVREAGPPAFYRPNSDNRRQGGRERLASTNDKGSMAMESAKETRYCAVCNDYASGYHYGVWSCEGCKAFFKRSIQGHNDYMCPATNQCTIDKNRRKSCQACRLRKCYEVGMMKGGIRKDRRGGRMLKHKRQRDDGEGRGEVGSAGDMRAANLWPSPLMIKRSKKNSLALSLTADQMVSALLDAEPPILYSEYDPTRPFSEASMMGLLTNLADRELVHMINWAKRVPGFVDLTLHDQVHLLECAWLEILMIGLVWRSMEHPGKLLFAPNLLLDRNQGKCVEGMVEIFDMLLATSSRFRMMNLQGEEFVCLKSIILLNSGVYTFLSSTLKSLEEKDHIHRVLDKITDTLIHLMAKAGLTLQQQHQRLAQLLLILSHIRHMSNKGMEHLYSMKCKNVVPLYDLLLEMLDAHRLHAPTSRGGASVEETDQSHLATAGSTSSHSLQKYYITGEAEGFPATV

SMILES	% Degradation At 0.3 μM [%]	IC50 [nM]
Cc1c(Cl)cccc1C1=C(c2ccc(C=C3CN(CCC(F)F)C3)cc2)c2ccc(O)cc2CCC1 [Compound 42, 8-(3-chloro-2-methylphenyl)-9-(4-((1-(3,3-difluoropropyl)azetidin-3-ylidene)methyl)phenyl)-6,7-dihydro-5H-benzo[7]annulen-3-ol]	53	6.4
Cc1ccc(C2=C(c3ccc(C=C4CN(CCCF)C4)cc3)c3ccc(C(=O)O)cc3CCC2)c(C(F)F)c1 [Compound 43, 8-(2-(difluoromethyl)-4-methylphenyl)-9-(4-((1-(3-fluoropropyl)azetidin-3-ylidene)methyl)phenyl)-6,7-dihydro-5H-benzo[7]annulene-3-carboxylic acid]	91	0.5
Cc1cc(C(F)F)ccc1C1=C(c2ccc(C=C3CN(CCCF)C3)cc2)c2ccc(C(=O)O)cc2CCC1 [Compound 44, 8-(4-(difluoromethyl)-2-methylphenyl)-9-(4-((1-(3-fluoropropyl)azetidin-3-ylidene)methyl)phenyl)-6,7-dihydro-5H-benzo[7]annulene-3-carboxylic acid]	93	0.5
COc1ccc(C(F)F)c(C2=C(c3ccc(C=C4CN(CCCF)C4)cc3)c3ccc(C(=O)O)cc3CCC2)c1 [Compound 45, 8-(2-(difluoromethyl)-5-methoxyphenyl)-9-(4-((1-(3-fluoropropyl)azetidin-3-ylidene)methyl)phenyl)-6,7-dihydro-5H-benzo[7]annulene-3-carboxylic acid]	93	0.6
CCc1c(Cl)cccc1C1=C(c2ccc(C=C3CN(CCCF)C3)cc2)c2ccc(C(=O)O)cc2CCC1 [Compound 46, 8-(3-chloro-2-ethylphenyl)-9-(4-((1-(3-fluoropropyl)azetidin-3-ylidene)methyl)phenyl)-6,7-dihydro-5H-benzo[7]annulene-3-carboxylic acid]	91	0.5
COc1ccc(C(F)(F)F)c(C2=C(c3ccc(C=C4CN(CCCF)C4)cc3)c3ccc(C(=O)O)cc3CCC2)c1 [Compound 47, 9-(4-((1-(3-fluoropropyl)azetidin-3-ylidene)methyl)phenyl)-8-(5-methoxy-2-(trifluoromethyl)phenyl)-6,7-dihydro-5H-benzo[7]annulene-3-carboxylic acid]	93	0.5
O=C(O)c1ccc2c(c1)CCCC(c1ccc(C(F)(F)F)cc1C1CC1)=C2c1ccc(C=C2CN(CCCF)C2)cc1 [Compound 48, 8-(2-cyclopropyl-4-(trifluoromethyl)phenyl)-9-(4-((1-(3-fluoropropyl)azetidin-3-ylidene)methyl)phenyl)-6,7-dihydro-5H-benzo[7]annulene-3-carboxylic acid]	94	0.9
COc1c(Cl)cccc1C1=C(c2ccc(C=C3CN(CCCF)C3)cc2)c2ccc(C(=O)O)cc2CCC1 [Compound 49, 8-(3-chloro-2-methoxyphenyl)-9-(4-((1-(3-fluoropropyl)azetidin-3-ylidene)methyl)phenyl)-6,7-dihydro-5H-benzo[7]annulene-3-carboxylic acid]	93	0.5
COc1cc(C2=C(c3ccc(C=C4CN(CCCF)C4)cc3)c3ccc(C(=O)O)cc3CCC2)ccc1C(F)(F)F [Compound 50, 9-(4-((1-(3-fluoropropyl)azetidin-3-ylidene)methyl)phenyl)-8-(3-methoxy-4-(trifluoromethyl)phenyl)-6,7-dihydro-5H-benzo[7]annulene-3-carboxylic acid]	92	8.5
O=C(O)c1ccc2c(c1)CCCC(c1ccc(C(F)F)cc1C(F)(F)F)=C2c1ccc(C=C2CN(CCCF)C2)cc1 [Compound 51, 8-(4-(difluoromethyl)-2-(trifluoromethyl)phenyl)-9-(4-((1-(3-fluoropropyl)azetidin-3-ylidene)methyl)phenyl)-6,7-dihydro-5H-benzo[7]annulene-3-carboxylic acid]	92	0.5
COc1cccc(C2=C(c3ccc(C=C4CN(CCCF)C4)cc3)c3ccc(C(=O)O)cc3CCC2)c1C(F)(F)F [Compound 52, 9-(4-((1-(3-fluoropropyl)azetidin-3-ylidene)methyl)phenyl)-8-(3-methoxy-2-(trifluoromethyl)phenyl)-6,7-dihydro-5H-benzo[7]annulene-3-carboxylic acid]	94	0.4
Cc1cc(C2=C(c3ccc(C=C4CN(CCCF)C4)cc3)c3ccc(C(=O)O)cc3CCC2)ccc1C(F)(F)F [Compound 53, 9-(4-((1-(3-fluoropropyl)azetidin-3-ylidene)methyl)phenyl)-8-(3-methyl-4-(trifluoromethyl)phenyl)-6,7-dihydro-5H-benzo[7]annulene-3-carboxylic acid]	91	1.2
O=C(O)c1ccc2c(c1)CCCC(c1ccc(C(F)F)cc1OC(F)(F)F)=C2c1ccc(C=C2CN(CCCF)C2)cc1 [Compound 54, 8-(4-(difluoromethyl)-2-(trifluoromethoxy)phenyl)-9-(4-((1-(3-fluoropropyl)azetidin-3-ylidene)methyl)phenyl)-6,7-dihydro-5H-benzo[7]annulene-3-carboxylic acid]	95	0.5
O=C(O)c1ccc2c(c1)CCCC(c1ccc(C(F)F)cc1)=C2c1ccc(C=C2CN(CCCF)C2)cc1 [Compound 55, 8-(4-(difluoromethyl)phenyl)-9-(4-((1-(3-fluoropropyl)azetidin-3-ylidene)methyl)phenyl)-6,7-dihydro-5H-benzo[7]annulene-3-carboxylic acid]	94	0.6
C[C@H]1CC[C@H](C2=C(c3ccc(C=C4CN(CCCF)C4)cc3)c3ccc(C(=O)O)cc3CCC2)CC1 [Compound 56, 9-(4-((1-(3-fluoropropyl)azetidin-3-ylidene)methyl)phenyl)-8-(trans-4-methylcyclohexyl)-6,7-dihydro-5H-benzo[7]annulene-3-carboxylic acid]	92	0.7
Cc1ccc(C(F)F)c(C2=C(c3ccc(C=C4CN(CCCF)C4)cc3)c3ccc(C(=O)O)cc3CCC2)c1 [Compound 57, 8-(2-(difluoromethyl)-5-methylphenyl)-9-(4-((1-(3-fluoropropyl)azetidin-3-ylidene)methyl)phenyl)-6,7-dihydro-5H-benzo[7]annulene-3-carboxylic acid]	93	0.7
O=C(O)c1ccc2c(c1)CCCC(c1ccccc1C(F)F)=C2c1ccc(C=C2CN(CCCF)C2)cc1 [Compound 58, 8-(2-(difluoromethyl)phenyl)-9-(4-((1-(3-fluoropropyl)azetidin-3-ylidene)methyl)phenyl)-6,7-dihydro-5H-benzo[7]annulene-3-carboxylic acid]	93	0.2
COc1cc(C(F)(F)F)ccc1C1=C(c2ccc(C=C3CN(CCCF)C3)cc2)c2ccc(C(=O)O)cc2CCC1 [Compound 59, 9-(4-((1-(3-fluoropropyl)azetidin-3-ylidene)methyl)phenyl)-8-(2-methoxy-4-(trifluoromethyl)phenyl)-6,7-dihydro-5H-benzo[7]annulene-3-carboxylic acid]	92	0.9
COc1cccc(C2=C(c3ccc(C=C4CN(CCCF)C4)cc3)c3ccc(C(=O)O)cc3CCC2)c1C(F)F [Compound 60, 8-(2-(difluoromethyl)-3-methoxyphenyl)-9-(4-((1-(3-fluoropropyl)azetidin-3-ylidene)methyl)phenyl)-6,7-dihydro-5H-benzo[7]annulene-3-carboxylic acid]	93	0.6
C[C@H]1CC[C@@H](C2=C(c3ccc(C=C4CN(CCCF)C4)cc3)c3ccc(C(=O)O)cc3CCC2)CC1 [Compound 61, 9-(4-((1-(3-fluoropropyl)azetidin-3-ylidene)methyl)phenyl)-8-(cis-4-methylcyclohexyl)-6,7-dihydro-5H-benzo[7]annulene-3-carboxylic acid]	91	0.9
COc1ccc(C2=C(c3ccc(C=C4CN(CCCF)C4)cc3)c3ccc(C(=O)O)cc3CCC2)c(C(F)(F)F)c1 [Compound 62, 9-(4-((1-(3-fluoropropyl)azetidin-3-ylidene)methyl)phenyl)-8-(4-methoxy-2-(trifluoromethyl)phenyl)-6,7-dihydro-5H-benzo[7]annulene-3-carboxylic acid]	93	0.5
